# Results from patent publication EP1100539B1, “COMBINATION OF ACTIVE SUBSTANCES, ESPECIALLY FOR THE PROPHYLAXIS AND THERAPY OF ISCHAEMIC ORGANIC LESIONS AND REPERFUSION SYNDROMES” (Vascular Biotech GmbH, priority 1998, dated 2000).
# “And” between values parts separate entries of the source, which are not always exact repeats. Identical values can stand only once.
# Test system: Meerschweinchenherzen
# Assay: Working guinea pig heart, ischaemia/reperfusion with activated PMN and platelets (Versuchsgruppe 1)
# Design: species or system Meerschweinchen
# Settings: for Herzleistung [% der initialen Leistung] / Interstitielles Volumen / Koronarfluß [% des Basalflusses]: flavone derivative 3*10^-5 M, individual hearts
# Procedure: Pathogene Wirkung von gleichzeitig aktivierten PMN und Thrombozyten im ischämischen Herzen. Als Studienobjekt dienten arbeitende, also Volumen gegen bestimmte Drucke auswerfende Meerschweinchenherzen. […] Thrombin, FMLP ([…]-Formyl-[…]) und […] Interaktion der Blutzellen mit dem koronaren Endothel bei diesen Versuchen. Tabelle 3: ^i Als Blutzellpräparate wurden eingesetzt: a) hochreine PMN (1-2*10^5/ml), […] Vorinkubation mit 100 μM […]) bzw. […] von PMN und TASS (bzw. T) in jeweils analogen Konzentrationen. Tabelle 3 gibt die unter […] bei […] von PMN und Thrombozyten (TASS = […] Vorinkubation mit 100μM […] = nicht […].
# [1] = PMN+T (platelets not preincubated with Acetylsalicylsäure)
# [2] = PMN+TASS (platelets preincubated 1 h with 100 µM Acetylsalicylsäure, washed)
# [3] = acute application of the flavonoid alone
# [4] = flavonoid applied in combination with Acetylsalicylsäure
Molecule,Herzleistung [% der initialen Leistung] [1],Interstitielles Volumen [1],Koronarfluß [% des Basalflusses] [1],Herzleistung [% der initialen Leistung] [2],Interstitielles Volumen [2],Koronarfluß [% des Basalflusses] [2],Verschlechterung der postischämischen Funktionsdaten (ΔP/Δt; interstitielles Volumen; Koronarfluß) [3],Verschlechterung der postischämischen Funktionsdaten (ΔP/Δt; interstitielles Volumen; Koronarfluß) [4]
Dihydroxyethylrutosid,49 % der initialen Leistung and 58 % der initialen Leistung and 65 % der initialen Leistung and 72 % der initialen Leistung and 78 % der initialen Leistung and 74 % der initialen Leistung,144 µL/g and 186 µL/g and 151 µL/g and 157 µL/g and 165 µL/g,49 % des Basalflusses and 51 % des Basalflusses and 39 % des Basalflusses and 47 % des Basalflusses and 64 % des Basalflusses and 69 % des Basalflusses,93 % der initialen Leistung and 94 % der initialen Leistung and 86 % der initialen Leistung and 84 % der initialen Leistung and 89 % der initialen Leistung,98 µL/g and 104 µL/g and 95 µL/g and 115 µL/g and 107 µL/g and 109 µL/g,102 % des Basalflusses and 107 % des Basalflusses and 98 % des Basalflusses and 93 % des Basalflusses and 95 % des Basalflusses and 89 % des Basalflusses,abgeschwächt,vollständig aufgehoben
O=c1c(O)c(-c2ccc(O)c(O)c2)oc2cc(O)cc(O)c12 [Quercetin],66 % der initialen Leistung and 69 % der initialen Leistung and 58 % der initialen Leistung and 44 % der initialen Leistung and 70 % der initialen Leistung,159 µL/g and 178 µL/g and 181 µL/g and 185 µL/g and 162 µL/g,61 % des Basalflusses and 49 % des Basalflusses (2×) and 55 % des Basalflusses and 62 % des Basalflusses and 40 % des Basalflusses,82 % der initialen Leistung and 86 % der initialen Leistung and 90 % der initialen Leistung and 85 % der initialen Leistung and 94 % der initialen Leistung,108 µL/g and 113 µL/g and 107 µL/g and 104 µL/g and 125 µL/g and 118 µL/g,101 % des Basalflusses and 107 % des Basalflusses and 89 % des Basalflusses and 95 % des Basalflusses and 91 % des Basalflusses,abgeschwächt,vollständig aufgehoben
O=C1C[C@@H](c2ccc(O)cc2)Oc2cc(O)cc(O)c21 [Naringenin],63 % der initialen Leistung and 49 % der initialen Leistung and 54 % der initialen Leistung and 69 % der initialen Leistung and 68 % der initialen Leistung,169 µL/g and 175 µL/g and 189 µL/g and 205 µL/g and 198 µL/g,57 % des Basalflusses and 55 % des Basalflusses and 63 % des Basalflusses and 51 % des Basalflusses and 45 % des Basalflusses and 46 % des Basalflusses,90 % der initialen Leistung and 97 % der initialen Leistung and 84 % der initialen Leistung and 94 % der initialen Leistung and 82 % der initialen Leistung and 89 % der initialen Leistung,98 µL/g and 117 µL/g and 107 µL/g and 109 µL/g and 102 µL/g,107 % des Basalflusses and 98 % des Basalflusses and 93 % des Basalflusses and 92 % des Basalflusses and 89 % des Basalflusses and 101 % des Basalflusses,abgeschwächt,vollständig aufgehoben
